Test results published in PubChem BioAssay AID602482 (Sanford-Burnham Center for Chemical Genomics, 2012).
Activity calls are given as the source filed them.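 The calls were made as follows: active = compounds whose mean concentration giving half-maximal cell killing is 20 µM or lower; inactive = the rest.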

System: NTR1-U2OS viability, ATPLite luminescence, 24 h
Assay: cytotoxicity in NTR1-U2OS cells, SAR follow-up, cytotoxicity control for NTR1 agonist project, cell-based, luminescence, ATPLite (AID 602482)

| SMILES | IC50 |
| --- | --- |
| COc1cccc(OC)c1-c1nc(C(=O)N[C@@H](CC(C)C)C(=O)O)cn1-c1ccnc2cc(Cl)ccc12 | > 80 µM (inactive) |
| COc1cc2nc(C3CC3)nc(N3CCN(c4ccccc4OC)CC3)c2cc1OC | 25.4 µM (inactive) |
